Data reported in PMC8300687, “A Fine-Tuned Lipophilicity/Hydrophilicity Ratio Governs Antibacterial Potency and Selectivity of Bifurcated Halogen Bond-Forming NBTIs” (Antibiotics, 2021).
In brackets after ≈: the same amount, converted by molar mass. Where two headings read alike, the source gives them in different places.

Legend:
MRSA (QA-11.2) = assay: MIC broth microdilution, MRSA QA-11.2; format: cell-based, methicillin-resistant S. aureus; conditions: Staphylococcus aureus, 20 h, resistant to cefoxitin, chloramphenicol, clindamycin, linezolid, tetracycline, thiamulin, trimethoprim, read-out: MIC MRSA (QA-11.2)
Protocol: (§1) Antimicrobial testing was carried out by the broth microdilution method in 96-well plate format following the Clinical and Laboratory Standards Institute (CLSI) guidelines and European Committee on Antimicrobial Susceptibility Testing (EUCAST) recommendations. Bacterial suspension of specific bacterial strain equivalent to 0.5 McFarland turbidity standard was diluted with cation-adjusted Mueller Hinton broth with TES (Thermo Fisher Diagnostic, Landsmeer, The Netherlands), to obtain a final inoculum of 10^5 CFU/mL. Compounds dissolved in DMSO and inoculum were mixed together and incubated for 18–20 h at 35 °C. Suspensions of Mycobacterium sp. were prepared into a tube of Middelbrook 7H9 broth supplemented with 5% OADC (Thermo Scientific, Trek Diagnostic Systems, West Sussex, UK) and incubated for at least 10 days. After incubation the minimal inhibitory concentration (MIC) values were determined by visual inspection as the lowest dilution of compounds showing no turbidity. Tetracycline was used as a positive control on every assay plate.

in vitro = conditions: for Papp at 4 h: PAMPA
Protocol: Prior to the measurements of solubility and permeability isocratic HPLC methods were developed. […] The individual method parameters for each compound are given in the Supplementary Materials Table S1.
A 96-well precoated three-layer PAMPA plates (Corning® Gentest™ Pre-coated PAMPA Plate System, Corning, NY, USA) were used according to the manufacturer’s instructions and as described previously with 300 µL of the donor solutions in the bottom compartment and 200 µL of the acceptor solution (pH 7.4 PBS) in the upper compartment at 37 °C and a 4-h incubation time. The initial and end donor solutions were injected at a 5 µL injection volume. The initial donor solutions were also diluted 100-fold and injected at a 100 µL injection volume to serve as external references for the end acceptor solutions which were injected at the same injection volume. The permeability calculations were made with a manufacturer-provided Excel spreadsheet directly from the measured peak areas accounting for the relevant dilutions and injection volumes.

E. coli N43 (CGSC# 5583) = assay: MIC broth microdilution, E. coli N43; format: cell-based; conditions: for MIC: Escherichia coli
Protocol: as §1

E. coli D22 = assay: MIC broth microdilution, E. coli D22; format: cell-based; conditions: Escherichia coli
Protocol: as §1

[1] = tested on: S. agalactiae RDK 047 (QA-990/02); assay: MIC broth microdilution, S. agalactiae; format: cell-based; conditions: Streptococcus agalactiae; read-out: MIC S. agalactiae RDK 047 (QA-990/02)
Protocol: as §1

MRSA = assay: MIC broth microdilution, MRSA; format: cell-based, methicillin-resistant S. aureus; conditions: Staphylococcus aureus, read-out: MIC MRSA
Protocol: as §1

HUVEC = assay: Metabolic activity assessment (cytotoxicity), HUVEC; format: cell-based; conditions: Homo sapiens, 72 h, metabolic activity after 72 h treatment
Protocol: Cells of the HepG2 line (ATCC® HB-8065™) and HUVEC (ATCC® CRL-1730™) were cultured in Dulbecco’s Modified Eagle Medium (DMEM; Sigma-Aldrich, St. Louis, MO, USA) supplemented with 10% heat-deactivated FBS (Gibco, Grand Island, NE, USA), 2 mM L-glutamine, 100 U/mL penicillin, 100 μg/mL streptomycin (all from Sigma-Aldrich, St. Louis, MO, USA) in a humidified chamber at 37 °C and 5% CO2. The experiments were carried out on passages 7–9 for both cell lines. The tested compounds were dissolved in DMSO and further diluted in culture medium to a desired final concentration. Cells were seeded into 96-well plates at 8 × 10^4 cells/mL (100 μL/well) and incubated for 24 h to attach onto the wells. Cells were treated with 1 μM and 50 μM of each compound of interest or corresponding vehicle as control. […] The metabolic activity was assessed after 72 h treatment using the CellTiter 96 Aqueous One Solution Cell Proliferation Assay (Promega, Madison, WI, USA), in accordance with the manufacturer’s instructions. The absorbance was measured at 492 nm on an automated microplate reader BioTek Synergy HT (BioTek Instruments, Inc., Winooski, VT, USA). Data are presented as the percentage of metabolic activity of control cells stimulated with vehicle or as IC50 value (mean ± SD) from two independent experiments, each conducted in duplicate or triplicate. IC50 values were calculated by a non-linear regression model using Graph Pad Prism 7 software.

[2] = tested on: E. faecalis DRK 057 (ATCC 29212); assay: MIC broth microdilution, E. faecalis; format: cell-based; conditions: Enterococcus faecalis, ATCC29212; read-out: MIC E. faecalis DRK 057 (ATCC 29212)
Protocol: as §1

[3] = tested on: P. aeruginosa RDK 184 (DSM 939); assay: MIC broth microdilution, P. aeruginosa; format: cell-based; conditions: Pseudomonas aeruginosa, DSM939; read-out: MIC P. aeruginosa RDK 184 (DSM 939)
Protocol: as §1

Human topoisomerase IIα = target: T1, Human topoisomerase IIα (Homo sapiens, UniProt P11388); assay: Human topoisomerase II Alpha Relaxation High Throughput Plate assay; format: biochemical; conditions: 0.5 h; residual activity of the enzyme at compound concentration 10 μM, mean ± SD; read-out: Human Topo II (% RA)
T1 construct: purchased Inspiralis (Norwich, UK)
Protocol: A Human topoisomerase II Alpha Relaxation High Throughput Plate assay kit, purchased from Inspiralis (Norwich, UK) was used to evaluate the selectivity of compounds for the bacterial enzymes over the homologous human topoisomerase II. […] Biotinylated oligonucleotide in wash buffer was immobilized onto the wells and the excess oligonucleotide was washed off with wash buffer. […] The reactions were stopped by adding the TF buffer (50 mM NaOAc (pH 4.7), 50 mM NaCl, and 50 mM MgCl2) to allow the triplex formation (biotin-oligonucleotide-plasmid) for additional 30 min. Afterward, the unbound plasmid was washed off using TF buffer, and the solution of Promega Diamond dye in T10 buffer (10 mM Tris-HCl (pH 8.0), 1 mM EDTA) was added. […] Screening was performed at inhibitor concentrations of 10 μM. Raw data were converted to mean ± SD percentage of residual activity of the enzyme obtained by two independent measurements.

MRSA (QA-11.6) = assay: MIC broth microdilution, MRSA QA-11.6; format: cell-based, methicillin-resistant S. aureus; conditions: Staphylococcus aureus, resistant to cefoxitin, gentamicin, sulfamethoxazole, tetracycline, read-out: MIC MRSA (QA-11.6)
Protocol: as §1

MRSA (QA-11.4) = assay: MIC broth microdilution, MRSA QA-11.4; format: cell-based, methicillin-resistant S. aureus; conditions: Staphylococcus aureus, 20 h, resistant to cefoxitin, read-out: MIC MRSA (QA-11.4)
Protocol: as §1

S. pneumoniae (QA-10/02) = assay: MIC broth microdilution, S. pneumoniae; format: cell-based; conditions: Streptococcus pneumoniae
Protocol: as §1

[4] = read-out: E. coli N43 MIC in molar
[5] = read-out: MIC E. coli N43 (CGSC# 5583)
[6] = D22, mutation in the lpxC gene that increases membrane permeability, read-out: MIC E. coli D22

T1 sequence (P11388 whole entry): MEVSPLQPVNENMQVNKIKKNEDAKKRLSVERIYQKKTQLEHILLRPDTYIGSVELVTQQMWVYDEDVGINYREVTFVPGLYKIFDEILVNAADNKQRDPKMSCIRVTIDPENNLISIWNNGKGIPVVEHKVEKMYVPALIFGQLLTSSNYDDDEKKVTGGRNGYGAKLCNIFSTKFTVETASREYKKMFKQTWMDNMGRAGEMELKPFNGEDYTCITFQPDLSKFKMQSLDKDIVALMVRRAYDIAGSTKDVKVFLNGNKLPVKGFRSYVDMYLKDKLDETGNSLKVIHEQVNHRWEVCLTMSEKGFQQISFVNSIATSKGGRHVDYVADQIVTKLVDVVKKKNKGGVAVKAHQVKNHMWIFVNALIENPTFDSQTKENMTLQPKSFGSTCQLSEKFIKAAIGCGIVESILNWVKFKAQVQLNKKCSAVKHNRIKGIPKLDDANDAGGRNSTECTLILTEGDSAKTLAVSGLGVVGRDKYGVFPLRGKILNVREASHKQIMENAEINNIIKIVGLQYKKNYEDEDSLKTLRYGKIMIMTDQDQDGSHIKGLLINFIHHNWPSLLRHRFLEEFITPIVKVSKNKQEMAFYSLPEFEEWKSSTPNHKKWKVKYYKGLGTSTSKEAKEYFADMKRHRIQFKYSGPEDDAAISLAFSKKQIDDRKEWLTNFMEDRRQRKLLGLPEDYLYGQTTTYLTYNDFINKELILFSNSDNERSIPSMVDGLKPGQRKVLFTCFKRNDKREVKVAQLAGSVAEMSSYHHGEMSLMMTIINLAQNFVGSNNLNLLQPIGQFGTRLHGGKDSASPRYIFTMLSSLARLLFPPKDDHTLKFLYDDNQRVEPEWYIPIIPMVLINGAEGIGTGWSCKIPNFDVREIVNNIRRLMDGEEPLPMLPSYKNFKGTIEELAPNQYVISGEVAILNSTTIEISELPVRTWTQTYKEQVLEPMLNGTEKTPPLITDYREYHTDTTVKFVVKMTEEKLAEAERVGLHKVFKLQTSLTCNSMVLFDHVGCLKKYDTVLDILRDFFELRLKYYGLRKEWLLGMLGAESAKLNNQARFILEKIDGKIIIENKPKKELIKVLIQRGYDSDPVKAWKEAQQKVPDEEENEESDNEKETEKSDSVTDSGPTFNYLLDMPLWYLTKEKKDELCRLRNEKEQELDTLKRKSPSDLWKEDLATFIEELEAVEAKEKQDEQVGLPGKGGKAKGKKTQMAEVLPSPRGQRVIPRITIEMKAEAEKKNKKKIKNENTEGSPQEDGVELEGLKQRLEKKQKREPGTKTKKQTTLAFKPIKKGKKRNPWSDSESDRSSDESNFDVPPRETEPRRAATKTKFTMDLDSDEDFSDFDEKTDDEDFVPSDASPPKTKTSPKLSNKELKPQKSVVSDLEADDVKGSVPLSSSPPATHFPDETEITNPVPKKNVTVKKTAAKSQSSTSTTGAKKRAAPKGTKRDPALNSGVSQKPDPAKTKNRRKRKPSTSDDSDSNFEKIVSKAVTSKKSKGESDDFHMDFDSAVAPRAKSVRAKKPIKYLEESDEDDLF

SMILES	MIC (MRSA (QA-11.2)) [µg/mL]	Papp at 4 h (in vitro) [×10⁻⁶ cm/s]	Papp at 4 h (in vitro; pH 7.4) [×10⁻⁶ cm/s]	E. coli N43 MIC in molar (E. coli N43 (CGSC# 5583); E. coli CGSC# 5583, AcrA knockout strain) [µM]	MIC (E. coli N43 (CGSC# 5583); [4]) [µM]	MIC (E. coli N43 (CGSC# 5583); [5]) [µg/mL]	MIC (E. coli D22; D22, read-out: MIC E. coli D22) [µg/mL]	MIC [1] [µg/mL]	MIC (MRSA) [µg/mL]	IC50 (HUVEC) [µM]	MIC [2] [µg/mL]	MIC [3] [µg/mL]	remaining activity at 10 µM (Human topoisomerase IIα) [%]	MIC (MRSA (QA-11.6)) [µg/mL]	MIC (MRSA (QA-11.4)) [µg/mL]	MIC (S. pneumoniae (QA-10/02)) [µg/mL]	PAMPA permeability classification [low/high] (in vitro; relative to reference drugs)	MIC (E. coli D22; [6]) [µg/mL]
COc1ccc2nccc(CCN3CCC(NCc4ccc(I)cc4)CC3)c2n1 [Compound 15]	0.0312 (≈ 0.0622 µM)	> 2.7	39.8	0.16	0.16	0.078	0.125 (≈ 0.249 µM)	0.125 (≈ 0.249 µM)	0.0078 (≈ 0.0155 µM)	~20	1 (≈ 1.99 µM)	32 (≈ 63.7 µM)	88.3 ± 3.33	0.0312 (≈ 0.0622 µM)	0.0625 (≈ 0.124 µM)	0.015 (≈ 0.0299 µM)	–	–
COc1ccc2nccc(CCN3CCC(NCc4ccc(CO)cc4)CC3)c2n1 [Compound 16]	8 (≈ 19.7 µM)	–	1.5	–	39.4	16	–	8 (≈ 19.7 µM)	4 (≈ 9.84 µM)	> 50	8 (≈ 19.7 µM)	> 128	97.7 ± 1.08	4 (≈ 9.84 µM)	8 (≈ 19.7 µM)	2 (≈ 4.92 µM)	int erm ediat e	16 (≈ 39.4 µM)
COc1ccc2nccc(CCN3CCC(NCc4ccc(OC(F)F)c(OC)c4)CC3)c2n1 [Compound 19, N-(4-(Difluoromethoxy)-3-methoxybenzyl)-1-(2-(6-methoxy-1,5-naphthyridin-4-yl)ethyl)piperidin-4-amine]	2 (≈ 4.23 µM)	> 2.7	9	–	2.12	1	–	< 1	2 (≈ 4.23 µM)	19.8 ± 2.58	16 (≈ 33.9 µM)	> 128	96.4 ± 2.3	2 (≈ 4.23 µM)	2 (≈ 4.23 µM)	2 (≈ 4.23 µM)	–	16 (≈ 33.9 µM)
COc1ccc2nccc(CCN3CCC(NCc4ccc(OC(F)F)c(O)c4)CC3)c2n1 [Compound 20, 2-(Difluoromethoxy)-5-((1-(2-(6-methoxy-1,5-naphthyridin-4-yl)ethyl)piperidin-4-ylamino)methyl)phenol]	1 (≈ 2.18 µM)	> 2.7	3	–	1.09	0.5	–	2 (≈ 4.36 µM)	1 (≈ 2.18 µM)	29.8 ± 1.13	4 (≈ 8.72 µM)	> 128	94.8	1 (≈ 2.18 µM)	2 (≈ 4.36 µM)	1 (≈ 2.18 µM)	–	2 (≈ 4.36 µM)
